The text below walks through data of patent US11325919B1, “Synthetic novel pyrroloiminoquinone alkaloid and method of use” (priority 2019, dated 2022).

One test relates to L1210. The test can be described thus: differential cytotoxicity zone assay, L1210. The class given is cell-based, murine. The text has this:
(§1) Discorhabdin A is the precursor to aleutianamine.

The next test has as its system Colon 38. The test can be described thus: differential cytotoxicity zone assay, Colon 38. The class given is cell-based, murine.
Excerpt: as §1

The subject of a further test is CFU-GM. Briefly: differential cytotoxicity zone assay, CFU-GM. Format: cell-based.
Excerpt: as §1

For the next test, the system named is H-116. The test can be described thus: differential cytotoxicity zone assay, H-116. The class given is cell-based, human.
Excerpt: as §1

In another test the test system is H-125. Briefly: differential cytotoxicity zone assay, H-125. The class given is cell-based.
Excerpt: as §1

A further test deals with MCF-7. Briefly: differential cytotoxicity zone assay, MCF-7. Format: cell-based, human.
Excerpt: as §1

For another test, the system named is LNCaP. Briefly: differential cytotoxicity zone assay, LNCaP. The class given is cell-based, human.
Excerpt: as §1

In the next test the test system is OVC-5. Briefly: differential cytotoxicity zone assay, OVC-5. The class given is cell-based.
Excerpt: as §1

A further test relates to U251N. The test can be described thus: differential cytotoxicity zone assay, U251N. The class given is cell-based.
Excerpt: as §1

The next test deals with MDA. Briefly: differential cytotoxicity zone assay, MDA. Format: cell-based.
Excerpt: as §1

Another test deals with PANC-1. The test can be described thus: differential cytotoxicity zone assay, PANC-1. Format: cell-based, human.
Excerpt: as §1

The subject of a further test is CEM. Briefly: differential cytotoxicity zone assay, CEM. Format: cell-based, human.
Excerpt: as §1

Test [1] has as its system human HCT-116 colon cancer cells. The test can be described thus: cytotoxicity IC50, HCT-116 colon cancer cells. Format: cell-based.
In test [2] the test system is PANC-1 pancreatic cancer cells. Briefly: cytotoxicity IC50, PANC-1 pancreatic cancer cells. The class given is cell-based. To be noted: Homo sapiens; pancreatic cancer (PANC-1).
A further test has as its system HCT-116 cells. Briefly: clonogenic studies, concentration-survival as function of exposure time. The class given is cell-based, human. Here is the method:
Clonogenic studies were carried out using HCT-116 cells to define the concentration-survival relationship as a function of exposure time.^26 The endpoint used, tS10 (10% survival of clonogenic cells for exposure time t) provides information essential for future preclinical therapeutic studies. These clonogenic studies based on formula II yielded a 2S10 value of >5 μM; a 24S10 value of 0.75 μM; and a 168S10 value of 0.1 μM. […] Compounds shown in Formula I are simple modifications and bio-isosteres and would have similar activity to the compound of formula II.

Test [3] deals with solid tumor cell lines compared to murine and human leukemia cells. The test can be described thus: differential cytotoxicity zone assay, solid tumor selectivity versus leukemia cells. The class given is cell-based.
Excerpt: as §1

The test system of a further test is topoisomerase II. The note with it: cited from earlier work.
Another test deals with solid human tumor. The note with it: solid human tumor model; cited from earlier work.

“Also recorded” adds a separate entry of the source.

Broadly, the IC50 is the point on the concentration scale where inhibition reaches its midpoint. Lower therefore signals greater potency. Turning to `O=C1C2=C3C4=[N+](CCc5c[nH]c1c54)[C@@H]1C[C@]34S[C@@H](C=C4C=C1Br)N2` [Aleutianamine], the zones of inhibition in the test on L1210 (Conc. 2 mg/ml) is recorded as 950 mm; in the test on L1210 (Conc. 1/16), 500 mm; with L1210 (Conc. 1/64) it was 250 mm; in the test on L1210 (Conc. ¼), 700 mm; in the test with Colon 38 (Conc. 2 mg/ml), more than 1000 mm; in the test on Colon 38 (Conc. 1/16), 900 mm. Also, the zones of inhibition is 450 mm in the test on Colon 38 (Conc. 1/64); more than 1000 mm in the test with Colon 38 (Conc. ¼); more than 1000 mm with CFU-GM (Conc. 1/16); 750 mm in the test with CFU-GM (Conc. 1/64); more than 1000 mm in the test with CFU-GM (Conc. ¼); more than 1000 mm with H-116 (Conc. 2 mg/ml). Moreover, the zones of inhibition is on record as 600 mm in the test with H-116 (Conc. 1/16); 250 mm in the test on H-116 (Conc. 1/64); 950 mm in the test on H-116 (Conc. ¼); 900 mm in the test with H-125 (Conc. 1/16); 400 mm with H-125 (Conc. 1/64); more than 1000 mm in the test on H-125 (Conc. ¼). Also, the zones of inhibition in the test on MCF-7 (Conc. 1/16) is given as more than 1000 mm; in the test with MCF-7 (Conc. 1/64), 600 mm; in the test on MCF-7 (Conc. ¼), more than 1000 mm; with LNCaP (Conc. 1/16), 1000 mm; in the test with LNCaP (Conc. 1/64), 500 mm; with OVC-5 (Conc. 1/16) it was 700 mm. Moreover, the zones of inhibition is reported as 350 mm in the test on OVC-5 (Conc. 1/64); 900 mm in the test with OVC-5 (Conc. ¼); 850 mm with U251N (Conc. 1/16); 700 mm with U251N (Conc. 1/64); more than 1000 mm with U251N (Conc. ¼); 800 mm in the test with MDA (Conc. 1/16). The zones of inhibition in the test on MDA (Conc. 1/64) is recorded as 500 mm; in the test with MDA (Conc. ¼) it was more than 1000 mm; in the test on PANC-1 (Conc. 1/16), more than 1000 mm; with PANC-1 (Conc. 1/64), 650 mm; with CEM (Conc. 1/16), 750 mm; in the test with CEM (Conc. 1/64) it was 350 mm. For the same molecule, the zones of inhibition with CEM (Conc. ¼) stood at 900 mm. Moreover, the results for the concentration for half-maximal inhibition (IC50) in test [1] (colon cancer (H116)), in [1] (colon cancer (H116 / HCT-116)) and in test [2] were 1000 nM, 1000 nM and 25 nM, respectively. Moreover, in the test with HCT-116 cells (exposure time 2), the “2S10 (10% survival of clonogenic cells for exposure time t)” value is more than 5 µM. Also, the “24S10 (10% survival of clonogenic cells for exposure time t)” value with HCT-116 cells (exposure time 24) was 0.75 µM. Further, the “168S10 (10% survival of clonogenic cells for exposure time t)” value in the test with HCT-116 cells (exposure time 168) is 0.1 µM. Moreover, the “selectivity of cell killing” value in test [3] is “solid tumor selectivity; also recorded: highly potent and selective for pancreatic and breast cancer as well as gliobastoma”.

As to `O=C1CC2SC3C[C@]2(C=C1Br)C1=C(N3)C(=O)c2[nH]cc3c2C1=NCC3` (stereo partly drawn) [Discorhabdin A, discorhabdin A], the zones of inhibition is 1000 mm in the test on L1210 (Conc. 2 mg/ml); 250 mm with L1210 (Conc. 1/16); 300 mm in the test with L1210 (Conc. ¼); 750 mm with Colon 38 (Conc. 2 mg/ml); 700 mm in the test on Colon 38 (Conc. 1/16); 800 mm with Colon 38 (Conc. ¼). For the same molecule, the zones of inhibition with CFU-GM (Conc. 1/16) is reported as 300 mm; with CFU-GM (Conc. ¼) it was more than 1000 mm; in the test on H-116 (Conc. 2 mg/ml) it was more than 1000 mm; in the test with H-116 (Conc. 1/16), 500 mm; with H-116 (Conc. ¼), 900 mm; in the test on H-125 (Conc. 1/16) it was 750 mm. The zones of inhibition in the test on H-125 (Conc. 1/64) is 400 mm; in the test on H-125 (Conc. ¼) it was 950 mm; in the test with MCF-7 (Conc. 1/16), 600 mm; with MCF-7 (Conc. 1/64), 350 mm; in the test with MCF-7 (Conc. ¼) it was 800 mm; with LNCaP (Conc. 1/16) it was 500 mm. Moreover, the zones of inhibition in the test on LNCaP (Conc. 1/64) amounted to 250 mm; with OVC-5 (Conc. 1/16) it was 500 mm; in the test on OVC-5 (Conc. 1/64) it was 200 mm; in the test on OVC-5 (Conc. ¼), 700 mm; with U251N (Conc. 1/16), 300 mm; in the test on U251N (Conc. 1/64), 200 mm. Further, the zones of inhibition is listed as 300 mm in the test on U251N (Conc. ¼); 500 mm with MDA (Conc. 1/16); 300 mm in the test with MDA (Conc. 1/64); 1000 mm in the test with MDA (Conc. ¼); 150 mm with PANC-1 (Conc. 1/16); 100 mm in the test with PANC-1 (Conc. 1/64). Besides, the zones of inhibition with PANC-1 (Conc. ¼) is on record as 450 mm; in the test on CEM (Conc. 1/16), 100 mm; with CEM (Conc. 1/64) it was 50 mm; in the test on CEM (Conc. ¼) it was 450 mm. Also, in the test with topoisomerase II, the “inhibition of topoisomerase II” value is “no inhibition”.

Consider `C[C@H]([C@H](O)CCC(C)(C)O)[C@H]1CC[C@@]2(O)C3=CC(=O)[C@@H]4C[C@@H](O)[C@@H](O)C[C@]4(C)[C@H]3CC[C@]12C` [Ecdysone], for which the zones of inhibition with L1210 (Conc. 2 mg/ml), in the test on Colon 38 (Conc. 2 mg/ml), in the test with H-116 (Conc. 2 mg/ml), in the test on H-125 (Conc. 2 mg/ml), in the test on MCF-7 (Conc. 2 mg/ml) and in the test on LNCaP (Conc. 2 mg/ml) was 0 mm each time. For the same molecule, the zones of inhibition in the test on OVC-5 (Conc. 2 mg/ml), in the test with U251N (Conc. 2 mg/ml), with MDA (Conc. 2 mg/ml) and in the test on PANC-1 (Conc. 2 mg/ml) was 0 mm throughout.

For the molecule `Cn1cc2c3c1C(=O)C(N)=CC3=NCC2` [Makaluvamine A], the tumor size entry in the test on solid human tumor was “decrease tumor size”.

Take `C[N+]1=C2C=C(N)C(=O)c3[nH]cc(c32)CC1.[Cl-]` [Makaluvamine C]: in the test with solid human tumor, the tumor size entry is “decrease tumor size”.

For karlotoxin 2, the zones of inhibition in the test with L1210 (Conc. 2 mg/ml) is listed as 150 mm; in the test with Colon 38 (Conc. 2 mg/ml) it was 200 mm; in the test on H-116 (Conc. 2 mg/ml), 200 mm; in the test with H-125 (Conc. 2 mg/ml), 100 mm; with MCF-7 (Conc. 2 mg/ml) it was 200 mm; with LNCaP (Conc. 2 mg/ml), 400 mm. Moreover, the zones of inhibition with OVC-5 (Conc. 2 mg/ml) is given as 200 mm; in the test with U251N (Conc. 2 mg/ml), 150 mm; with MDA (Conc. 2 mg/ml), 200 mm; with PANC-1 (Conc. 2 mg/ml) it was 200 mm; in the test on CEM (Conc. 2 mg/ml) it was 100 mm.
